Data published in patent publication US11957687B2 (REGENERON PHARMACEUTICALS, INC., priority 2019, dated 2024).
pIC50: −log10 of the molar value.

Legend:
[1] = Microsome stability assay, mouse liver microsomes; assay type: in vitro ADME; settings: 1 μM compound, 0.5 mg/mL microsomal protein; for microsomal CLint at 1 μM / half-life at 1 μM / microsomal CLint at 1 h, 1 µM / half-life at 1 h, 1 µM: mouse, mouse liver microsomes, pooled, NADPH, 37° C.; for microsomal CLint at 1 μM / microsomal CLint at 1 h, 1 µM: read-out: Microsome Stability Mouse liver microsomes Cl; for half-life at 1 μM / half-life at 1 h, 1 µM: read-out: Microsome Stability Mouse liver microsomes T½
In short: (§1)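 Compound at 1 μM incubated at 37° C with pooled human or mouse liver microsomes (0.5 mg/mL protein) plus NADPH regenerating system, sampled at 0–60 min; a 60-min no-NADPH incubation also included. Single replicate; LC/MS/MS disappearance from analyte/internal standard peak area ratios, without standard curve.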

HSD17B1 = HSD17B1 (Homo sapiens (Human), UniProt P14061); assay: HSD17B1 enzymatic blocking assay; assay type: biochemical; settings: 25 μM Estradiol, 500 μM NAD; read-out: Inhibition of HSD17B1 IC50
In short: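 Activity followed as NADH formed on estradiol oxidation, read by NADH-Glo luminescence after 1 h detection in the dark at room temperature. Compounds preincubated with enzyme 30 min at room temperature; 0.5% DMSO and no-substrate controls. IC50 fitted from luminescence.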

[2] = Microsome stability assay, human liver microsomes; assay type: in vitro ADME; settings: 1 μM compound, 0.5 mg/mL microsomal protein
In short: as §1

HSD17B2 = HSD17B2 (Homo sapiens (Human), UniProt P37059); assay: HSD17B2 enzymatic blocking assay; assay type: biochemical; settings: 1.8 μM Estradiol, 650 μM NAD; read-out: Inhibition of HSD17B2 IC50
In short: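 Mammalian-expressed enzyme at 2 ng/μL in 50 mM Tris-HCl pH 7.5 with detergents/BSA, preincubated 15 min at 20° C. with compound (10-point titration). Reaction with 1.8 μM estradiol and 650 μM NAD ran 45 min at 20° C.; NADH measured by NADH-Glo luminescence and IC50 derived.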

HSD17B13 = HSD17B13 (Homo sapiens (Human), UniProt Q7Z5P4); assay: HSD17B13 enzymatic inhibition assay (150 nM or 50 nM HSD17B13); assay type: biochemical; settings: 50 nM HSD17B13; read-out: Inhibition of 50 nM of HSD17B13 IC50
[3] = human, human liver microsomes, pooled, NADPH, 37° C., read-out: Microsome Stability Human liver microsomes Cl
[4] = human, human liver microsomes, pooled, NADPH, 37° C., read-out: Microsome Stability Human liver microsomes T½

Sequence of HSD17B13 (Q7Z5P4 other isoform, or with tags, fused parts or gaps): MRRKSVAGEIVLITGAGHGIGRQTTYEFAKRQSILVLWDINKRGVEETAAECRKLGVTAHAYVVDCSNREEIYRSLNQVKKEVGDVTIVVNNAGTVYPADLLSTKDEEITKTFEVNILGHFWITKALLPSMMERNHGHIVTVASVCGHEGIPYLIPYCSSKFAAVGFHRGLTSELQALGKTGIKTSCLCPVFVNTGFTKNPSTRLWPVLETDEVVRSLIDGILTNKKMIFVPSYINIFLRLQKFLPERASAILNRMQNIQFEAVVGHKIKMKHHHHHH
Sequence of HSD17B2 (P37059 other isoform, or with tags, fused parts or gaps): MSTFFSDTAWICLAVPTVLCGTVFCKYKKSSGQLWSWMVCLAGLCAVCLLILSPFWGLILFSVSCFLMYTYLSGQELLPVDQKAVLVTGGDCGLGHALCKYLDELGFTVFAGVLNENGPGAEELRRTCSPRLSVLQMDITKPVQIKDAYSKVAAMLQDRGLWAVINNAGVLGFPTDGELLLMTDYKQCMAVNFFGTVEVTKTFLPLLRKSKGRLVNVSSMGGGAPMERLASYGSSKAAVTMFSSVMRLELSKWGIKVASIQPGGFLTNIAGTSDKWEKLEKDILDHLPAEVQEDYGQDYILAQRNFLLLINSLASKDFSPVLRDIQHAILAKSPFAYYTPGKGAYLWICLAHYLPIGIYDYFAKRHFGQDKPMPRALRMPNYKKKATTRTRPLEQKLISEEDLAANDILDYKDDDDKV
Sequence of HSD17B1 (P14061 other isoform, or with tags, fused parts or gaps): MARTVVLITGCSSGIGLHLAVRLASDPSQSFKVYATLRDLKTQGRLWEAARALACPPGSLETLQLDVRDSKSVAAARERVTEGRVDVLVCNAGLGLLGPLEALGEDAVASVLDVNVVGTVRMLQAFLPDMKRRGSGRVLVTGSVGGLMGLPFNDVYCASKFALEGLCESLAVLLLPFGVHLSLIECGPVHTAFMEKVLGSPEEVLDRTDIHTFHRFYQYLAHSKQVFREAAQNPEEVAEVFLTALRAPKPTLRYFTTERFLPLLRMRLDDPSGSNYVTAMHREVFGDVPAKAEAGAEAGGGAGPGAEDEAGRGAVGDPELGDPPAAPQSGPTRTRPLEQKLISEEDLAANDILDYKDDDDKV

SMILES	Microsome Stability Mouse liver microsomes % Remaining @60 min [1]	microsomal CLint at 1 μM [1]	half-life at 1 μM [1]	pIC50 (HSD17B1)	Microsome Stability Human liver microsomes % Remaining @60 min [2]	microsomal CLint at 1 h, 1 µM [2, 3]	half-life at 1 h, 1 µM [2, 4]	pIC50 (HSD17B2)	pIC50 (HSD17B13)	microsomal CLint at 1 h, 1 µM [1]	half-life at 1 h, 1 µM [1]	microsomal CLint at 1 μM [2, 3]	half-life at 1 μM [2, 4]
Cc1ccc2c(c1)Oc1cc(C)ccc1C2NC(=O)c1cc(OC2CCOCC2)c(C(F)(F)F)[nH]c1=O [Compound 260, N-(3,6-dimethyl-9H-xanthen-9-yl)-2-oxo-5-((tetrahydro-2H-pyran-4-yl)oxy)-6-(trifluoromethyl)-1,2-dihydropyridine-3-carboxamide]	81.70%	< 9.6 µL/min/mg	> 145 min	4.95	24.50%	46.9 µL/min/mg	29.5 min	4.49	7.70				
COc1ccc2c(c1)Sc1ccccc1C2NC(=O)c1ccc(C(F)F)[nH]c1=O (stereo not drawn) [Compound 272, 6-(difluoromethyl)-N-(3-methoxy-9H-thioxanthen-9-yl)-2-oxo-1,2-dihydropyridine-3-carboxamide]	13.10%			< 4.52	73.40%	12.1 µL/min/mg	114 min	4.53	6.37	68.2 µL/min/mg	20.3 min		
CCCC1CCc2cc(OC)ccc2C1NC(=O)c1ccc(C(F)(F)F)[nH]c1=O (stereo not drawn) [Compound 289, N-(6-methoxy-2-propyl-1,2,3,4-tetrahydronaphthalen-1-yl)-2-oxo-6-(trifluoromethyl)-1,2-dihydropyridine-3-carboxamide]	22.70%			< 4.52	14.90%	59.9 µL/min/mg	23.1 min	4.53	7.10	47 µL/min/mg	29.5 min		
CCC1Cc2cc(C)ccc2C1NC(=O)c1ccc(C(F)(F)F)[nH]c1=O (stereo not drawn) [Compound 298, N-(2-ethyl-5-methyl-2,3-dihydro-1H-inden-1-yl)-2-oxo-6-(trifluoromethyl)-1,2-dihydropyridine-3-carboxamide]	26.50%			< 4.52	1%	450 µL/min/mg	3.08 min	4.51	7.22	45.1 µL/min/mg	30.7 min		
CCC1CCc2cc(OC)ccc2C1NC(=O)c1ccc(C(F)(F)F)[nH]c1=O (stereo not drawn) [Compound 299, N-(2-ethyl-6-methoxy-1,2,3,4-tetrahydronaphthalen-1-yl)-2-oxo-6-(trifluoromethyl)-1,2-dihydropyridine-3-carboxamide]	43.50%			< 4.52	11%	66.8 µL/min/mg	20.8 min	4.65	7.00	27.4 µL/min/mg	50.6 min		
Cc1ccc2c(c1)Sc1cc(C)ccc1C2NC(=O)c1cc(-c2ccccc2)c(C(F)(F)F)[nH]c1=O [Compound 306, N-(3,6-dimethyl-9H-thioxanthen-9-yl)-2-oxo-5-phenyl-6-(trifluoromethyl)-1,2-dihydropyridine-3-carboxamide]	70.90%			5.13	12.80%	72.9 µL/min/mg	19 min	4.76	7.52	9.6 µL/min/mg	144 min		
Cc1ccc2c(c1)Sc1cc(C)ccc1C2NC(=O)c1cc(-c2ccccn2)c(C(F)(F)F)[nH]c1=O [Compound 307, N-(3,6-dimethyl-9H-thioxanthen-9-yl)-6′-oxo-2′-(trifluoromethyl)-1′,6′ dihydro-[2,3′-bipyridine]-5′-carboxamide]	96.20%	< 9.6 µL/min/mg	> 145 min	5.56	0.85%	154 µL/min/mg	9 min	5.05	8.00				
Cc1ccc2c(c1)[C@H](O)CC[C@H]2NC(=O)c1ccc(C(F)(F)F)[nH]c1=O [Compound 311, N-((1R,4R)-4-hydroxy-6-methyl-1,2,3,4-tetrahydronaphthalen-1-yl)-2-oxo-6-(trifluoromethyl)-1,2-dihydropyridine-3-carboxamide]	105%	< 9.6 µL/min/mg	> 145 min	< 4.52	67.80%	10.5 µL/min/mg	132 min	< 4.00	6.72				
COc1ccc2c(c1)Oc1cnccc1C2NC(=O)c1ccc(C(F)(F)F)[nH]c1=O (stereo not drawn) [Compound 327, N-(8-methoxy-5H-chromeno[2,3-c]pyridin-5-yl)-2-oxo-6-(trifluoromethyl)-1,2-dihydropyridine-3-carboxamide]	46%			4.67	62%	15.8 µL/min/mg	87.7 min	< 4.00	6.42	24.6 µL/min/mg	56.3 min		
COC1Cc2cc(C)ccc2C1NC(=O)c1ccc(C(F)(F)F)[nH]c1=O (stereo not drawn) [Compound 351, N-(2-methoxy-5-methyl-2,3-dihydro-1H-inden-1-yl)-2-oxo-6-(trifluoromethyl)-1,2-dihydropyridine-3-carboxamide]	83.70%	< 9.6 µL/min/mg	> 145 min	< 4.52	0.73%	157 µL/min/mg	8.84 min	4.18	6.29				
COc1ccc2c(c1)CC(OC)C2NC(=O)c1ccc(C(F)(F)F)[nH]c1=O (stereo not drawn) [Compound 352, N-(2,5-dimethoxy-2,3-dihydro-1H-inden-1-yl)-2-oxo-6-(trifluoromethyl)-1,2-dihydropyridine-3-carboxamide]	88.70%	< 9.6 µL/min/mg	> 145 min	< 4.52	5.86%	93.5 µL/min/mg	14.8 min	< 4.00	6.15				
CC[C@@H]1Oc2cc(C)ccc2[C@H]1NC(=O)c1ccc(C(F)(F)F)[nH]c1=O [Compound 360, N-((2S,3R)-2-ethyl-6-methyl-2,3-dihydrobenzofuran-3-yl)-2-oxo-6-(trifluoromethyl)-1,2-dihydropyridine-3-carboxamide]	36.20%			< 4.52	1%	318 µL/min/mg	4.36 min	4.64	6.23	32.8 µL/min/mg	42.2 min		
CCC[C@H]1C[C@@H](NC(=O)c2ccc(C(F)(F)F)[nH]c2=O)c2cc(C)ccc2N1 [Compound 362, N-((2S,4R)-6-methyl-2-propyl-1,2,3,4-tetrahydroquinolin-4-yl)-2-oxo-6-(trifluoromethyl)-1,2-dihydropyridine-3-carboxamide]	70%	12.1 µL/min/mg	114 min	< 4.52	58.50%			4.56	7.10			15.3 µL/min/mg	90.7 min
CCCC1Cc2cc(C)ccc2C(NC(=O)c2ccc(C(F)(F)F)[nH]c2=O)C1 (stereo not drawn) [Compound 387, N-(6-methyl-3-propyl-1,2,3,4-tetrahydronaphthalen-1-yl)-2-oxo-6-(trifluoromethyl)-1,2-dihydropyridine-3-carboxamide]	21.60%			< 4.52	2.70%	112 µL/min/mg	12.3 min	4.56	7.30	52 µL/min/mg	26.6 min		
